Results on three molecules are retold here after patent publication US20250128062A1 (priority 2023, published 2025).

“Also recorded” adds a separate entry of the source.

The subject of data set [1] is afferent transmission in C-fiber and Aδ-fiber afferents (DRG). As to the kind of experiment: ex vivo single-fiber recordings of afferent transmission block by DRG stimulation with local Na,K-ATPase inhibition (3-compartment tissue chamber). The text has this:
FIG. 9A is a plot of ex vivo single-fiber recordings from afferent axons in a 3-compartment tissue chamber that isolates the DRG from the spinal nerve and dorsal root allowing focused pharmacological application.
Action potentials were evoked by stimulating the peripheral end of the spinal nerve, which is transmitted down the peripheral and central axons to be recorded by extracellular single-fiber recordings from split dorsal root filaments.

Another data set has as its target α1 unit of Na,K-ATPase. The settings on record: read-out: Kd to block the α1 unit of Na,K-ATPase; cited from earlier work.
For data set [2] the following is noted: in vivo; cited from earlier work.
The conditions of data set [3]: patients; cited from earlier work.

As to `C[C@@H]1O[C@@H](O[C@H]2C[C@@H](O)[C@]3(CO)[C@H]4[C@H](O)C[C@]5(C)[C@@H](C6=CC(=O)OC6)CC[C@]5(O)[C@@H]4CC[C@]3(O)C2)[C@H](O)[C@H](O)[C@H]1O` [ouabain], the “transmission block of C-fiber afferent by 10 Hz DRG stimulation” value in data set [1] (10 Hz DRG stimulation combined with ouabain 10 μg/mL (17.1 μM), OBF for C-fibers ~50 Hz without drug) is “effectively blocks afferent transmission; also recorded: transmission block is achieved; also recorded: selectively block C-fiber afferents”. Moreover, the “transmission block of Aδ-fiber afferent by 10 Hz DRG stimulation” value in data set [1] (10 Hz DRG stimulation combined with ouabain 17.1 μM) is on record as “unblocked; also recorded: unaffected”. Besides, the “transmission block by DRG stimulation as measured by the time to resume transmission following terminating the DRG stimulation” value in data set [1] (ouabain 10 μg/mL or 17.1 μM applied locally to the DRG in the middle compartment) is given as “significantly prolonged”. Further, the “separation of optimal blocking frequency (OBF) between C-fibers and thinly myelinated Aδ-fibers” value in data set [1] (ouabain applied to the DRG) is “greater separation”. In addition, on α1 unit of Na,K-ATPase, the Kd is 32 to 170 µM.

For `C[C@H]1O[C@@H](O[C@H]2[C@@H](O)C[C@H](O[C@H]3[C@@H](O)C[C@H](O[C@H]4CC[C@@]5(C)[C@H](CC[C@@H]6[C@@H]5CC[C@]5(C)[C@@H](C7=CC(=O)OC7)CC[C@]65O)C4)O[C@@H]3C)O[C@@H]2C)C[C@H](O)[C@@H]1O` [digitoxin], the “route of elimination from the body” value in data set [2] was “eliminated via the liver”.

As to `C[C@H]1O[C@@H](O[C@H]2[C@@H](O)C[C@H](O[C@H]3[C@@H](O)C[C@H](O[C@H]4CC[C@@]5(C)[C@H](CC[C@@H]6[C@@H]5C[C@@H](O)[C@]5(C)[C@@H](C7=CC(=O)OC7)CC[C@]65O)C4)O[C@@H]3C)O[C@@H]2C)C[C@H](O)[C@@H]1O` [digoxin], the “serum level considered safe with no apparent side effects” value in data set [3] was below 1.0 ng/mL.

What is called Kd is a measure of binding affinity in units of concentration.
